Source: patent publication US11248023B2 (NEURACLE SCIENCE CO., LTD., priority 2015, dated 2022)
Blank lines part the entries; values can stand above or below the molecule they belong to. Square brackets hold non-standard residues; d marks the D form. Peptide text beside a SMILES is read from it. PEG = not defined here

What was measured:
[1] = Stability in 100% fetal bovine serum, residual potency via IP3 production in GALR2-expressing cells; settings: 37° C., 0-72 h, IP3 production in GALR2-expressing cells
Method: The stability of the spexin-based mutant peptides was investigated. To this end, first, each modified mutant peptide at an initial concentration 10 μM was allowed to react in 100% fetal bovine serum (FBS) at 37° C. for 0, 3, 6, 12, 24, 48, and 72 h. Thereafter, the potencies of the mutant peptide toward GALR2 were determined via inositol 1,4,5-triphosphate (IP3) production in GALR2-expressing cells. For the IP3 assay, cells were seeded in 12-well plates at a density of 2.5×10^5 cells/well and then the next day, cells were treated with a mixture of 1 μg of GALR2-encoding plasmid DNA and Lipofectamine 2000 (Invitrogen). On day following treatment, cells were incubated in M199 media containing 1% FBS, 1% L-glutamine, 1% antibiotic, and myo-^3H inositol 1 μCi/well for 20 h to radioactively label inositol phosphate. After this stage was finished, cells were allowed to react in buffer A (140 mM NaCl, 20 mM Hepes, 4 mM KCl, 8 mM D-glucose, 1 mM MgCl2, 1 mM CaCl2), 1 mg/ml free fatty acid bovine serum albumin, and 10 mM LiCl at pH 7.2) for 30 min. After the mutant peptide was allowed to react in 100% FBS, cells were treated with the mutant peptide for 40 min at 37° C. Media was removed, and reactions were terminated by addition of 1 ml of 10 mM cold formic acid to each well. The plates were allowed to stand at 4° C. for 30 min. Then, the resulting extracts were transferred to 6-mL plastic tubes containing 500 μl AG1-8X anion exchange columns. The tubes were gently mixed with a vortexer, and the supernatants were removed from the labeled mixture. Two washes with 1 ml of triple-distilled water were performed followed by two additional washes with 60 mM ammonium formate/5 mM sodium tetraborate. The radioactively labeled mixture was eluted from the column with 1 ml of 1 M ammonium formate/0.1 M formic acid (1 mL), and 800 μl from the elution were taken from each tube and transferred into scintillation vials. Then, 2 ml of scintillation cocktail solution (Ultima Gold™, Perkin Elmer, Waltham Mass., USA) was added to each sample. The radioactivity of the mixture solution of the radioactively labeled mixture and the scintillation cocktail solution was measured using a TRI carb 2100TR liquid scintillation analyzer (Packard).

[2] = Sucrose preference test (SPT); type: in vivo, mice; settings: 2 days
Method: The effect of the GALR2 agonist dN1-Qu on addiction reduction was investigated. In the same manner as in Example 3, a cannula was inserted into the lateral ventricle of mice. After injection of dimethyl sulfoxide (DMSO) and 0.4, 4, and 40 μg of dN1-Qu, the consumptions of water and 1% sucrose solution were measured for 2 days by the sucrose preference test (SPT) for addiction evaluation. According to this test, tap water and sucrose solution were filled in respective bottles and weighed before injection of the agonist. After free access to the fluids for 2 days, the bottles were weighed to compare the total consumption of the fluids and the percentage of the consumed sucrose solution in the total fluid consumption.

[3] = Elevated plus maze (EPM) test; type: in vivo, mice; settings: 4 μg lateral ventricle, 2-3 h after administration, vs DMSO
Method: The effect of the GALR2 agonist dN1-Qu on recovery from anxiety disorder was investigated. In the same manner as in Example 3, a cannula was inserted into the lateral ventricle of mice. 2-3 h after dimethyl sulfoxide (DMSO) as a control or 4 μg of the GALR2 agonist dN1-Qu as an experimental group was administered, the elevated plus maze (EPM) test was conducted to measure anxiety/obsession. The EPM test uses a cross-shaped maze elevated above the floor with closed arms, open arms, and a center and is based on the behavior of mice that prefer to remain in the closed arms. Anxiety is judged to be lower when a larger number of mice remain in the open arms. After mice was placed on the plus maze, the time spent in the open arms (“time in open arm”), the number of mice entering the open arms (“number of open arm entry”), and the total movement (“number of center crossing”) were measured for the first 15 min. The results for the last 10 min were used for analysis.

[4] = Dietary intake and body weight change after intracerebroventricular administration; type: in vivo, mice
Method: C57BL/6J black male mice (9 weeks of age) were acquired from Orientbio (www.orient.co.kr). Mice were housed in a cage at 20-24° C. and 40-70% relative humidity under a normal 12:12 light-dark cycle (lights onset at 8:00 am), with food and water available ad libitum. All experiments were designed to minimize the number of animals. Animals were anesthetized to minimize their suffering in accordance with the Guidelines for Ethical Care and Use of Experimental Animals, which were approved by the institutional animal care and use committee of Korea University. For intracerebroventricular injection, mice were anesthetized with sodium pentobarbital (50 mg/kg, i.p.), mounted on a stereotaxic apparatus, and implanted with a 26-gauge stainless steel cannula into the right side of the lateral ventricle. Two jewelry screws were implanted into the skull as anchors, and the whole assembly was affixed to the skull with dental cement. Mice were recovered at least 2 weeks before experimentation. The GALR2 agonist was administered using a Hamilton syringe at a rate of 0.5 μl/min. Dietary intakes and weight changes were determined by measuring the weights of feed and mice before agonist administration, measuring the weights of the feed over 1, 2, 4, 12, and 24 h, and comparing the weight of mice after 24 h with the initial weight.
The effects of the GALR2 agonist on feeding behaviors and changes in body weight were investigated by the following procedure. First, a cannula was inserted into the third ventricle.

GALR2 = biological target: T1, GALR2 (Homo sapiens, UniProt O43603); assay: SRE-luc assay in HEK293-Gqi cells expressing GALR2; type: cell-based; settings: GALR2 versus GALR3
T1 construct: expressed in transfected cells
T1 sequence (O43603 1-387): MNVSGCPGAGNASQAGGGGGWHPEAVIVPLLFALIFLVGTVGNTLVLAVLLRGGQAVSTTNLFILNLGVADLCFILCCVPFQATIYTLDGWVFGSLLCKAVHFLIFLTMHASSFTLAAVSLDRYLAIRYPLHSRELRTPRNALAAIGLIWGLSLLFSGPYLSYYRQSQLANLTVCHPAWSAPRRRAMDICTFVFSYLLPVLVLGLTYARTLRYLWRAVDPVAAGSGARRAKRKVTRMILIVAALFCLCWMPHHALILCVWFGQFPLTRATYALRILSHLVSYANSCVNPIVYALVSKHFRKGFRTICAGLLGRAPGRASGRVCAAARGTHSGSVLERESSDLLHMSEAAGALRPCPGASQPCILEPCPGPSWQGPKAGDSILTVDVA
Text: The HEK293-Gqi stable cell line is a cell line in which the C-terminus of Gq is substituted with 3 amino acids of G to convert the signals of G to Gq signaling pathways. […] GALR subtypes 1 and 3 induce inhibitory G-coupled signaling, while GALR subtype 2 triggers stimulatory Gq-coupled signaling. This difference explains the use of the HEK293-Gqi stable cell line in which the C-terminus of Gq is substituted with 3 amino acids of G to convert the signals of Gi to Gq signaling pathways.
GALR subtypes 1 and 3 induce inhibitory G-coupled signaling, while GALR subtype 2 triggers stimulatory Gq-coupled signaling. This difference explains the use of the HEK293-Gqi stable cell line in which the C-terminus of Gq is substituted with 3 amino acids of G to convert the signals of G to Gq signaling pathways. The activities of the receptors were measured using an SRE-luc assay system designed to express luciferase (luc) by serum responsive element (SRE) promoters. Light caused by a reaction between expressed luciferase and luciferin as a substrate was detected using a luminometer so that receptor subtype-specific or ligand-specific cellular activities were observed. One day after HEK293-Gqi cells were seeded in 48-well plates at a density of 2×10^4 cells/well, plasmid DNA and SRE-luc plasmid DNA, which encode GALR2 and GALR3, respectively, were mixed in a ratio of 1:1 (75 ng+75 ng)/well, and treated with Effectene reagent (2 μl/well). After 3 h, media were replaced with DMEM media supplemented with 10% FBS. After 24 h, the DMEM media were replaced with FBS-free DMEM media. After 16 h, each constructed spexin-based mutant peptide was further incubated at 37° C. for 6 h. After this stage was finished, cells were washed with PBS and lysed by the addition of 100 μl of lysis buffer (0.1% triton X-100, 0.2M Tris, pH 8.0) at room temperature for 20 min. The luciferase activity was determined using a synergy 2 Multi-mode microplate reader (BioTek, Winooski, Vt., USA) with automatic injection of a luciferin solution (0.5 M MgCl2, 0.1 M ATP, 0.05 M D-luciferin, 1 M KH2PO4, pH 7.8).

[5] = test system: neurons in the arcuate nucleus; assay: c-fos immunohistochemistry, arcuate nucleus, after ventricular administration; type: in vivo, mice; settings: 0.4, 4, and 40 μg to the ventricle, 1 h
neurons in the amygdala = assay: c-fos immunohistochemistry, amygdala and other brain regions; type: in vivo, mice; settings: 0.4, 4, and 40 μg to the ventricle, 1-2 h
Method: Then, the brain was placed in a mold for brain tissue, transferred to and frozen in an isopentane solution kept cold on dry ice with an OCT composite containing 30% sucrose solution, and stored at −80° C. before use. The frozen brain tissue was sliced at 40 μm using a cryostat microtome, followed by immunohistochemistry.

[6] = Open field test (OFT) in anxiety-induced mice; type: in vivo; settings: vs DMSO
Text: The effect of the GALR2 agonist on anxiety reduction was investigated by the OFT for simultaneously measuring movement and anxiety (FIG. 13). The OFT is based on the behavior of mice that prefer to stay at the periphery rather than at the center of a quadrangular area. After mice were placed at the center of a quadrangular area, the proportion of the time spent in the center (“% time in center”), the proportion of the moving distance in the center (“% distance in center”), and the total moving distance (“total distance”) were measured for 10 min from the time when the animals moved to the periphery. The results were divided into two equal periods (5 min each) for analysis. 2-3 h after 4 μg of DMSO as a control or the GALR2 agonist dN1-Qu was administered to the lateral ventricle of animals, which had previously been evoked by repeated electric shocks to induce anxiety, anxiety and movement were measured.

[7] = test system: neurons in the amygdala and arcuate nucleus; assay: Neuron activity after nasal inhalation of GALR2 agonist; type: in vivo, mice; settings: 8 μg nasal inhalation, 1-2 h; like intracerebroventricular injection
Method: 1-2 h after nasal inhalation, the results were recorded. The results of nasal inhalation were compared with those of intracerebroventricular injection.

[8] = 3 μg into the third ventricle, 24 h, compared to spexin-administered mice and control
[9] = concentrations of 0.5, 1, and 3

stability in serum (100% FBS) [1]: increased stability | specificity for GALR2 (GALR2): specificity for GALR2
Molecule: CC(C)C[C@H](NC(=O)[C@H](C)NC(=O)[C@H](C)NC(=O)[C@H](CC(N)=O)NC(=O)[C@@H]1CCCN1C(=O)[C@@H](NC(=O)[C@H](Cc1c[nH]c2ccccc12)NC(=O)[C@H](N)CC(N)=O)[C@@H](C)O)C(=O)N[C@@H](Cc1ccc(O)cc1)C(=O)N[C@@H](CC(C)C)C(=O)N[C@@H](Cc1ccccc1)C(=O)NCC(=O)N1CCC[C@H]1C(=O)N[C@@H](CCC(N)=O)C(N)=O [dN1-Qu] (H-[dN]WTPNAALYLFGPQ-NH2)
total consumption of the fluids [2]: no difference | consumption of sucrose ([2]; 1% sucrose solution): considerably reduced | sucrose preference (consumed sucrose solution in total fluid consumption) ([2]; 1% sucrose, 0.4, 4, and 40 μg lateral ventricle, control ~70%): ≤ 60% | number of center crossing [3]: no difference | number of open arm entry [3]: increased | time in open arm [3]: increased | change in body weight [4, 8]: weight loss was effectively induced | dietary intake [4, 8]: significantly decreased | c-fos expressing neurons in the arcuate nucleus [5]: increase in the number of c-fos expressing neurons | c-fos expressing neurons in the amygdala (neurons in the amygdala): increase in the number of c-fos expressing neurons | neurons in other emotion-regulating brain regions (neurons in the amygdala): not activated | % distance in center ([6]; first 5-min period): increased | total distance ([6]; first 5-min period): no difference | % distance in center ([6]; second 5-min period): increased

specificity for GALR2 (GALR2): specificity for GALR2
Molecule: PEG-NWTdANAALYLFGPdQ-NH2 ({PEG}-NWT[dA]NAALYLFGP[dQ]-NH2; reading uncertain) [PEG-se]
activity of neurons in the amygdala and arcuate nucleus [7]: increase the activity of neurons | stability in serum (100% FBS) [1]: increased stability | effect on dietary intake after GALR2 antagonist M871 ([4]; 3 μg following 10 μg of M871): disappeared | effect on weight loss after GALR2 antagonist M871 ([4]; 3 μg following 10 μg of M871): disappeared | dietary intake [4, 9]: dietary intakes and weight losses were observed | weight loss [4, 9]: dietary intakes and weight losses were observed
